{"source": "the NIST ThermoML archive (doi:10.1016/j.jct.2015.02.004)", "note": "Numbers after ± are expanded uncertainties.", "data": [{"details": "298.15 K; 101.33 kPa; Liquid; Pycnometric method", "units": {"mass density": "kg/m3"}, "values": [{"smiles": "CC(C)=O", "note": "[acetone]", "mass density": "783.8 ± 1.9"}, {"smiles": "CC(C)O", "note": "[propan-2-ol]", "mass density": "780.6 ± 1.9"}, {"smiles": "CCCCO", "note": "[butan-1-ol]", "mass density": "805.5 ± 2"}, {"smiles": "CC#N", "note": "[acetonitrile]", "mass density": "776.3 ± 1.9"}, {"smiles": "COC(C)(C)C", "note": "[2-methoxy-2-methylpropane]", "mass density": "734.1 ± 1.9"}, {"smiles": "CCOC(C)=O", "note": "[ethyl acetate]", "mass density": "893.4 ± 2.1"}, {"smiles": "CO", "note": "[methanol]", "mass density": "786.3 ± 1.9"}, {"smiles": "CCO", "note": "[ethanol]", "mass density": "784.2 ± 1.9"}]}]}
